Measured values as given in patent US8568755B2 (priority 2007, dated 2013).
Structures can show the parent of a compound that is named as a salt. Where two headings read alike, the source gives them in different places.

Assays:
Sphaerotheca fuliginea = type: in vivo
Erysiphe graminis = assay: Test on preventive effect against wheat powdery mildew (Test Example 1); type: in vivo
[1] = partner fungicide alone 125 ppm
[2] = partner fungicide alone 250 ppm
[3] = partner fungicide alone 500 ppm

O=C1c2ccccc2C(=O)N1SC(Cl)(Cl)Cl [folpet]
diseased area ratio to non-treated section (Sphaerotheca fuliginea; [1]): 84.4
diseased area ratio to non-treated section (Sphaerotheca fuliginea; [2]): 84.4
diseased area ratio to non-treated section (Sphaerotheca fuliginea; [3]): 81.3

CCO[PH](=O)O [fosetyl-Al]
diseased area ratio to non-treated section (Erysiphe graminis; fungicide (b) alone 500 ppm): 97.5
diseased area ratio to non-treated section (Erysiphe graminis; fungicide (b) alone 1000 ppm): 97.5

CCCCC(O)(Cn1cncn1)c1ccc(Cl)cc1Cl (stereo not drawn) [hexaconazole]
diseased area ratio to non-treated section (Sphaerotheca fuliginea; partner fungicide alone 2 ppm): 95.0
diseased area ratio to non-treated section (Sphaerotheca fuliginea; partner fungicide alone 4 ppm): 85.0
diseased area ratio to non-treated section (Sphaerotheca fuliginea; partner fungicide alone 8 ppm): 75.0

Cc1cc(O)no1 [hymexazol]
diseased area ratio to non-treated section (Sphaerotheca fuliginea; partner fungicide alone 100 ppm): 95.0

N=C(N)NCCCCCCCCNCCCCCCCCNC(=N)N [iminoctadine]
diseased area ratio to non-treated section (Sphaerotheca fuliginea; partner fungicide alone 4 ppm): 65.0
diseased area ratio to non-treated section (Sphaerotheca fuliginea; partner fungicide alone 8 ppm): 45.0
diseased area ratio to non-treated section (Sphaerotheca fuliginea; partner fungicide alone 16 ppm): 30.0

CC(C)NC(=O)N1CC(=O)N(c2cc(Cl)cc(Cl)c2)C1=O [iprodione]
diseased area ratio to non-treated section (Sphaerotheca fuliginea; [1]): 60.0
diseased area ratio to non-treated section (Sphaerotheca fuliginea; [2]): 45.0
diseased area ratio to non-treated section (Sphaerotheca fuliginea; [3]): 45.0

C[C@H]1O[C@H](O[C@H]2[C@H](O)[C@@H](O)[C@@H](O)[C@H](O)[C@@H]2O)[C@@H](N)C[C@@H]1NC(=N)C(=O)O [kasugamycin]
diseased area ratio to non-treated section (Erysiphe graminis; fungicide (b) alone 50 ppm): 97.5
diseased area ratio to non-treated section (Erysiphe graminis; fungicide (b) alone 500 ppm): 55.0

CO/N=C(/C(=O)OC)c1ccccc1COc1ccccc1C [kresoxim-methyl]
diseased area ratio to non-treated section (Erysiphe graminis; fungicide (b) alone 12.5 ppm): 4.9
diseased area ratio to non-treated section (Erysiphe graminis; fungicide (b) alone 25 ppm): 1.8

CC#Cc1cc(C)nc(Nc2ccccc2)n1 [mepanipyrim]
diseased area ratio to non-treated section (Sphaerotheca fuliginea; partner fungicide alone 63 ppm): 0.5
diseased area ratio to non-treated section (Sphaerotheca fuliginea; [1]): 0.5

C/C=C/C(=O)Oc1c(C(C)CCCCCC)cc([N+](=O)[O-])cc1[N+](=O)[O-] (stereo not drawn) [meptyldinocap]
diseased area ratio to non-treated section (experimental value) (Sphaerotheca fuliginea; single use at 3 ppm): 2.5

CC1(C)CCC(Cc2ccc(Cl)cc2)C1(O)Cn1cncn1 (stereo not drawn) [metconazole]
diseased area ratio to non-treated section (Erysiphe graminis; fungicide (b) alone 0.0075 ppm): 95.0
diseased area ratio to non-treated section (Erysiphe graminis; fungicide (b) alone 0.03 ppm): 55.0

COc1cc(C)c(C(=O)c2c(OC)ccc(Br)c2C)c(OC)c1OC [metrafenone, 3′-bromo-2,3,4,6′-tetramethoxy-2′,6-dimethylbenzophenone]
diseased area ratio to non-treated section (Erysiphe graminis; fungicide (b) alone 0.0075 ppm): 100
diseased area ratio to non-treated section (Erysiphe graminis; fungicide (b) alone 0.03 ppm): 35.0

O=C([O-])O.[K+] [potassium bicarbonate]
diseased area ratio to non-treated section (experimental value) (Sphaerotheca fuliginea; single use at 100 ppm): 25.0
diseased area ratio to non-treated section (experimental value) (Sphaerotheca fuliginea; single use at 1000 ppm): 20.0

CC12CC1(C)C(=O)N(c1cc(Cl)cc(Cl)c1)C2=O (stereo not drawn) [procymidone]
diseased area ratio to non-treated section (Sphaerotheca fuliginea; [1]): 85.0
diseased area ratio to non-treated section (Sphaerotheca fuliginea; [2]): 82.5
diseased area ratio to non-treated section (Sphaerotheca fuliginea; [3]): 70.0

CCCOC(=O)NCCCN(C)C [propamocarb hydrochloride]
diseased area ratio to non-treated section (experimental value) (Sphaerotheca fuliginea; single use at 10 ppm): 95.0
diseased area ratio to non-treated section (experimental value) (Sphaerotheca fuliginea; single use at 100 ppm): 95.0
diseased area ratio to non-treated section (experimental value) (Sphaerotheca fuliginea; single use at 1000 ppm): 92.5

COC(=O)N(OC)c1ccccc1COc1ccn(-c2ccc(Cl)cc2)n1 [pyraclostrobin]
diseased area ratio to non-treated section (experimental value) (Sphaerotheca fuliginea; single use at 100 ppm): 100

Cc1cc(C)nc(Nc2ccccc2)n1 [pyrimethanil]
diseased area ratio to non-treated section (Sphaerotheca fuliginea; partner fungicide alone 25 ppm): 90.0

COC(=O)NC(=S)Nc1ccccc1NC(=S)NC(=O)OC [thiophanate-methyl]
diseased area ratio to non-treated section (Sphaerotheca fuliginea; partner fungicide alone 63 ppm): 75.0
diseased area ratio to non-treated section (Sphaerotheca fuliginea; [1]): 65.0

COP(=S)(OC)Oc1c(Cl)cc(C)cc1Cl [tolclofosmethyl]
diseased area ratio to non-treated section (experimental value) (Sphaerotheca fuliginea; single use at 100 ppm): 80.0

CON=C(C(=O)OC)c1ccccc1CON=C(C)c1cccc(C(F)(F)F)c1 [trifloxystrobin]
diseased area ratio to non-treated section (Sphaerotheca fuliginea; partner fungicide alone 4 ppm): 85.0
diseased area ratio to non-treated section (Sphaerotheca fuliginea; partner fungicide alone 200 ppm): 50.0
diseased area ratio to non-treated section (experimental value) (Sphaerotheca fuliginea; single use at 4 ppm): 85.0
diseased area ratio to non-treated section (experimental value) (Sphaerotheca fuliginea; single use at 200 ppm): 50.0

CCCOC/C(=N\c1ccc(Cl)cc1C(F)(F)F)n1ccnc1 [triflumizole]
diseased area ratio to non-treated section (Sphaerotheca fuliginea; partner fungicide alone 3 ppm): 85
diseased area ratio to non-treated section (Sphaerotheca fuliginea; partner fungicide alone 12 ppm): 70

mancozeb
diseased area ratio to non-treated section (Sphaerotheca fuliginea; [1]): 50.0
diseased area ratio to non-treated section (Sphaerotheca fuliginea; [2]): 31.3

polyoxins
diseased area ratio to non-treated section (Sphaerotheca fuliginea; [1]): 40.0
diseased area ratio to non-treated section (Sphaerotheca fuliginea; [2]): 35.0

potassium phosphite
diseased area ratio to non-treated section (experimental value) (Sphaerotheca fuliginea; single use at 100 ppm): 85.0
diseased area ratio to non-treated section (experimental value) (Sphaerotheca fuliginea; single use at 500 ppm): 80.0
